Measurements from publication PMC11722313 (bioRxiv, 2025).

How the values were obtained:
[1] = SEC-SAXS of IDE constructs; type: physicochemical, human; details: Guinier method
[2] = Size-exclusion chromatography elution of IDE constructs; type: physicochemical, human; details: S200 SEC column
[3] = molecular target: IDE R668A (human insulin degrading enzyme, cysteine-free) (Homo sapiens, UniProt P14735, C110L/C171S/C178A/C257V/C414L/C573N/C590S/C789S/C812A/C819A/C904S/C966N/C974A/R668A); assay: Competition assay: inhibition of MCA-[…]; type: biochemical; details: 5 nM IDE R668A, 5 μM MCA-RPPGFSAFK(Dnp), pH 7.5, 37° C; average of three technical replicates
Sequence of IDE R668A (human insulin degrading enzyme, cysteine-free) (P14735 42-1019 C110L/C171S/C178A/C257V/C414L/C573N/C590S/R668A/C789S/C812A/C819A/C904S/C966N/C974A limits assumed): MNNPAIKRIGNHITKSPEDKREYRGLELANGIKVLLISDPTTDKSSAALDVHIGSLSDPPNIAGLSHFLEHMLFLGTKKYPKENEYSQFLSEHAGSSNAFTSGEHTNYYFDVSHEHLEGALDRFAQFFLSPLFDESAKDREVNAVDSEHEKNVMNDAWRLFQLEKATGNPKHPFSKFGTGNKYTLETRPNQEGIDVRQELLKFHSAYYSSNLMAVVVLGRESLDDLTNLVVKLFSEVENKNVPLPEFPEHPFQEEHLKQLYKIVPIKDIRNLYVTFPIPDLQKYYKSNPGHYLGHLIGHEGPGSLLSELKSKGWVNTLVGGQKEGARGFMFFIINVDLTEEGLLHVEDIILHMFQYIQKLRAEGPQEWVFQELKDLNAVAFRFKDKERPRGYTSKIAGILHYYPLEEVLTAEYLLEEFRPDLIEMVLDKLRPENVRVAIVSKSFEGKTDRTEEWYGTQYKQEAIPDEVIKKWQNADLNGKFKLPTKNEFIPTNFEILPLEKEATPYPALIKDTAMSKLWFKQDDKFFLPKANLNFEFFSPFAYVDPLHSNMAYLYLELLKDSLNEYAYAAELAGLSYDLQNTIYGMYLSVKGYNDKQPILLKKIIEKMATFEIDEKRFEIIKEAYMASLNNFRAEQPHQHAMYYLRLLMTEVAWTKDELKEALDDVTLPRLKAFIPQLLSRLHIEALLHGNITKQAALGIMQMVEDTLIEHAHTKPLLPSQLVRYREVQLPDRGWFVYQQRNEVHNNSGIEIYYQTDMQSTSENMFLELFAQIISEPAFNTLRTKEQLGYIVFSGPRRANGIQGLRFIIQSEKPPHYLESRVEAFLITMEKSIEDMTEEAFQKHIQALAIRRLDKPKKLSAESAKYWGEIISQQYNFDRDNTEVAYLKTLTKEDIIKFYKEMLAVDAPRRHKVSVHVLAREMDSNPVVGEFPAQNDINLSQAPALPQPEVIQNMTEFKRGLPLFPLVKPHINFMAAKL

[4] = system: IDE; assay: Cryo-EM of IDE in the presence of sub-saturating insulin; design: species or system human
[5] = system: IDE; details: time-resolved SAXS; ref Zhang et al., 2018; cited from earlier work
[6] = system: IDE; details: HDX-MS; ref Zhang et al, 2018; cited from earlier work
[7] = IDE:insulin 2:1, compared with previously reported O and pO states

R668A: IDE carrying a R668 to alanine (R668A) point mutation
Rg (Guinier) [1]: 54.7 +/− 0.4 Å
SEC elution relative to WT IDE [2]: eluted slightly earlier than WT IDE

Aβ(1–40): amyloid-β 1–40, an unstructured substrate of IDE
competition of MCA-RPPGFSAFK(Dnp) degradation, IDE R668A (in words) [3]: did not exhibit a dose-dependent response to the presence of Aβ and the data could not be fit to any kinetic equation

insulin: IDE substrate; purchased from MP Biomedicals (#0219390010) for enzymatic assays, SIGMA (91077C) for cryo-EM
closing of pO and O subunits in presence of insulin (D1-D4 COM distance) [4, 7]: 3–5 Å
reduction of D1-D2-D3-D4 COM dihedral in presence of insulin [4, 7]: 5–10 °
dominant IDE state with sub-saturating insulin ([4]; IDE:insulin molar ratio 2:1, cryo-EM): the pC/pC was still found to be dominant
time constant tau for the insulin induced open to closed transition [5]: ~ 100 milliseconds

O=C(C[C@@H](Cc1ccc2ccccc2c1)n1cc(CNC(=O)c2ccc(F)cc2)nn1)NO [BDM-44768]
deuterium exchange of the R668-containing peptide vs apo-IDE [6]: the peptide containing R668 shows reduced deuterium exchange relative to apo-IDE
